Measurements from ChEMBL document CHEMBL1201862, “PubChem BioAssay data set” (2004).
Active and inactive are the calls of the source.

Legend:
[1] = inhibitors of SNCA 5'UTR-driven reporter translation, confirmation, H4 neuroglioma cells, luminescence (AID 1988); assay type: functional, cell-based
[2] = Luminescence Cell-Based Dose Response HTS to Identify Inhibitors of 5'UTR Stem-Loop Driven Prion Protein mRNA Translation in H4 Neuroglioblastoma Cells. [Related pubchem assays: 1827 (Project Summary), 1813 (Primary HTS)]; assay type: functional
[3] = inhibitors of firefly luciferase expression or activity, dose response, H4 neuroglioma cells, luminescence (AID 1990); assay type: functional, cell-based
[4] = Luminescence Cell-Based Dose Response HTS to Identify Activators of Luciferase Translation or Activity in H4 […] Cells. [Related pubchem assays: 1829 (Project Summary), 1814 (Primary HTS)]; assay type: functional
H4 = assay: Luminescence Cell-Based Dose Response HTS to Identify Activators of 5'UTR Stem-Loop Driven Prion Protein mRNA Translation in H4 Neuroglioblastoma Cells. [Related pubchem assays: 1829 (Project Summary), 1814 (Primary HTS)]; assay type: functional; conditions: Homo sapiens
[5] = Luminescence Cell-Based Dose Confirmation HTS to Identify Activators of 5'UTR Stem-Loop Driven Alpha-Synuclein mRNA Translation in H4 Neuroglioblastoma Cells. [Related pubchem assays: 1829 (Project Summary), 1814 (Primary HTS)]; assay type: functional
Paired box protein Pax-8 = Paired box protein Pax-8 (Homo sapiens, UniProt Q06710); assay: inhibitors of PAX8-driven TPO luciferase reporter, dose response, RMG-I cells, cherry-pick (AID 687027); assay type: functional, cell-based;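 further: luciferase reporter driven by Pax8 target thyroperoxidase promoter measured by SteadyGlo luminescence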
Chain of Paired box protein Pax-8 (Q06710 whole entry): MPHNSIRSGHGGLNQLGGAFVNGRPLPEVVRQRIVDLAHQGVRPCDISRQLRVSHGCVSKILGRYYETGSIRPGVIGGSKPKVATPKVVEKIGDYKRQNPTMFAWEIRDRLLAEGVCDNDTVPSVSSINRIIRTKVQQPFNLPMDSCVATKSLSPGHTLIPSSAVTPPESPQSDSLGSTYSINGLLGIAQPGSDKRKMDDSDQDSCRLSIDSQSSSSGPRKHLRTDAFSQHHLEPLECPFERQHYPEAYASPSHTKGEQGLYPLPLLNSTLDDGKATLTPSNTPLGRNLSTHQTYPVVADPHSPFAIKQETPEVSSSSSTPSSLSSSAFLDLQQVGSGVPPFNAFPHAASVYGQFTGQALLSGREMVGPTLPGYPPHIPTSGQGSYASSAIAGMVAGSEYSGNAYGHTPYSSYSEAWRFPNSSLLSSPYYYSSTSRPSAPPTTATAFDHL

Cytochrome P450 2C9 = Cytochrome P450 2C9 (Homo sapiens, UniProt P11712)
Chain of Cytochrome P450 2C9 (P11712 whole entry): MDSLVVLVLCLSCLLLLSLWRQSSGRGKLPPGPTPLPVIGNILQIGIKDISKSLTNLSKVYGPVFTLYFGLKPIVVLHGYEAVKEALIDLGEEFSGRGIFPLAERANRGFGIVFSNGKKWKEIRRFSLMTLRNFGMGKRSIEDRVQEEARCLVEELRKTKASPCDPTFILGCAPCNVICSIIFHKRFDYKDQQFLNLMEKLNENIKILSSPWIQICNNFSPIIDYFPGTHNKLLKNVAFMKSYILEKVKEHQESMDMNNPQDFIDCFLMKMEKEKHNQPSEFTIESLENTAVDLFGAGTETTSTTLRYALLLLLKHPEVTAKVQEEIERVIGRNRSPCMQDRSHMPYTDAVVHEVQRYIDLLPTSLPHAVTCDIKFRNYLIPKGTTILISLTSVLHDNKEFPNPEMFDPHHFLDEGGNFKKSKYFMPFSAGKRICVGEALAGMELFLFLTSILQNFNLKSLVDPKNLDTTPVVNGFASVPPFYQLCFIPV

Cytochrome P450 3A4 = Cytochrome P450 3A4 (Homo sapiens, UniProt P08684);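 further: CYP3A4 tested as one member of a cytochrome P450 panel screen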
Chain of Cytochrome P450 3A4 (P08684 whole entry): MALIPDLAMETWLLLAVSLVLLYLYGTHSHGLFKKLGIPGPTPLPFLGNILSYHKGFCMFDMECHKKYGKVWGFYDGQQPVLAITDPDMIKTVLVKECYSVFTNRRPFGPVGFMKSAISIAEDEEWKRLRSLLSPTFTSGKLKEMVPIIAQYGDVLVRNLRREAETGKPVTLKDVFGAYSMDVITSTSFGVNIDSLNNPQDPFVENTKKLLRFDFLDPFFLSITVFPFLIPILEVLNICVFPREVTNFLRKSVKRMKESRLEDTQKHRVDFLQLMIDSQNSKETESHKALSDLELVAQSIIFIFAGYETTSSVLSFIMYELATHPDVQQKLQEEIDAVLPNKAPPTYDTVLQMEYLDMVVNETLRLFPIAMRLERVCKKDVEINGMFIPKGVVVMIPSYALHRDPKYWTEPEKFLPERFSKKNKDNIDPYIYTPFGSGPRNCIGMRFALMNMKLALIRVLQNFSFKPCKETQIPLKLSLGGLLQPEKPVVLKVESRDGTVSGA

Cytochrome P450 1A2 = molecular target: T1, Cytochrome P450 1A2 (Homo sapiens, UniProt P05177);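 further: PubChem cytochrome P450 panel assay, CYP1A2 panel member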
T1 sequence (P05177 whole entry): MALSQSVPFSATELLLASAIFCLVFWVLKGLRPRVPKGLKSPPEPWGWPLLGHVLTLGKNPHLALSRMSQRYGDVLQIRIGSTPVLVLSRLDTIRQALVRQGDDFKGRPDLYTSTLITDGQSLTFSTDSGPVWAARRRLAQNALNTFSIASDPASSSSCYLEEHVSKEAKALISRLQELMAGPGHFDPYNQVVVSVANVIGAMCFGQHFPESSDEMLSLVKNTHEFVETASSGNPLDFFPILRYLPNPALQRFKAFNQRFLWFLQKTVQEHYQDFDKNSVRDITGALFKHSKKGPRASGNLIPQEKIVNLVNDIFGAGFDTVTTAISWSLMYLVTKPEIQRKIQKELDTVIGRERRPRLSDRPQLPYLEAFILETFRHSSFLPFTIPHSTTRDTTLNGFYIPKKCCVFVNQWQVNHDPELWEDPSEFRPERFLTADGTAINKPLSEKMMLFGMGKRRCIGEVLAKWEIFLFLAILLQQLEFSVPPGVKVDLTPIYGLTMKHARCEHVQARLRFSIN

[6] = molecular target: T2, Heat shock factor protein 1 (Mus musculus, UniProt P38532); assay: inhibition of MG132-induced HSE-luciferase signal, confirmation, cell-based, NIH3T3, luminescence, dose retest (AID 2382); assay type: functional;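 further: NIH3T3 fibroblasts with HSF1-driven luciferase reporter stressed by proteasome inhibitor MG132; luminescence from HSF1-driven luciferase expression after 8 hours of MG132 stress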
T2 sequence (P38532 whole entry): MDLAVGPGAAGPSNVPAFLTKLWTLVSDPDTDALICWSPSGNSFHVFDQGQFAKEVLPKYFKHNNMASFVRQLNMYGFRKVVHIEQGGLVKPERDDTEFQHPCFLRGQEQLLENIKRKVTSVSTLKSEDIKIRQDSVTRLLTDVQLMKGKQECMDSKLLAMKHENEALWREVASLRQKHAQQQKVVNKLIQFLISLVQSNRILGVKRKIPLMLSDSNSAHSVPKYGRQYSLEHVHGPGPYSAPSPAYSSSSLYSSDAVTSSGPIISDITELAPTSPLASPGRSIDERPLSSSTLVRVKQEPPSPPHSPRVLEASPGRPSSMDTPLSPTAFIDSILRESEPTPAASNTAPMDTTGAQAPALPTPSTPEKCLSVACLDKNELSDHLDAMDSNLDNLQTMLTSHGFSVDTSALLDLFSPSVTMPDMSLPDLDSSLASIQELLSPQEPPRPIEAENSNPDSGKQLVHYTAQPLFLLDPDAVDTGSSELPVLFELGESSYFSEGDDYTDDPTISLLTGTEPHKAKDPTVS

Cytochrome P450 2C19 = Cytochrome P450 2C19 (Homo sapiens, UniProt P33261); assay: Cytochrome panel assay with activity outcomes. Panel member name: p450-cyp2c19 Compounds with AC50 equal or less than 10 uM are considered active; assay type: functional; conditions: read-out: AC50
Chain of Cytochrome P450 2C19 (P33261 whole entry): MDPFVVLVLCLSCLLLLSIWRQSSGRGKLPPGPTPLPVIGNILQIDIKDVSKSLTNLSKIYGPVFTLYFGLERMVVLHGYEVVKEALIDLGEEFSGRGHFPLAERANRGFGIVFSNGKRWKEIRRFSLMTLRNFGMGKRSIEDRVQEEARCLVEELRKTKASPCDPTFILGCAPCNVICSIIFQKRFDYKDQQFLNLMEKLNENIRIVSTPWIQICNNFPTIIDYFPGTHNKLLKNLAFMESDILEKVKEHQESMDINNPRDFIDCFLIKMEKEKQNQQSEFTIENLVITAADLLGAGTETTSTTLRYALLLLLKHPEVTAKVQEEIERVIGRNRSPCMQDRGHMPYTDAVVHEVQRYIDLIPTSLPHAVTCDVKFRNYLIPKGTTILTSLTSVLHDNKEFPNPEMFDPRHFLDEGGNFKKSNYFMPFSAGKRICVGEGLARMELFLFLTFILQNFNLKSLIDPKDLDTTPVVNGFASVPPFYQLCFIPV

With CCN(CC)S(=O)(=O)c1cccc(-c2nnc(S)n2/N=C/c2ccc(OC)cc2)c1 the EC50 [1] was 34.8 µM (active), the EC50 [2] was > 120 µM (not active) and the EC50 [3] was 23.8 µM (active).
In the case of Cc1cc(C)c2c(N)c(C(=O)Nc3cccc(C)c3C)sc2n1, the EC50 [4] is reported as 3.92 µM (active), the EC50 (H4) is reported as > 120 µM (not active) and the EC50 [5] is reported as > 120 µM (not active).
For C[C@H](O)C#Cc1cnc2c(c1)C(=O)N([C@H](C)CO)C[C@H](C)[C@H](CN(C)Cc1ccc(-c3ccccc3)cc1)O2, the AC50 (Paired box protein Pax-8) was 5.05 µM (active).
For Nc1ccc(S(=O)(=O)c2ccc(NC(=O)c3cccnc3)cc2)cc1, the AC50 (Cytochrome P450 2C9) was 6.31 µM (inconclusive) and the AC50 (Cytochrome P450 3A4) was 3.16 µM (inconclusive).
For COc1cccc(Cn2c(=O)c(-c3cccc(C#N)c3)nc3cnc(Nc4ccccc4)nc32)c1, the AC50 (Cytochrome P450 3A4) was 0.794 µM (inconclusive).
For NC[C@](O)(CS(=O)(=O)O)c1ccc(Cl)cc1, the AC50 (Cytochrome P450 3A4) was 1 µM (inconclusive) and the AC50 (Cytochrome P450 1A2) was 31.6 µM (inconclusive).
With O=C(c1ccc(C[S+]([O-])Cc2ccccc2Cl)o1)N1CCN(C2CCCCC2)CC1 (stereo not drawn) the EC50 [4] was > 120 µM (not active), the EC50 (H4) was > 120 µM (not active) and the EC50 [5] was > 120 µM (not active).
For CN1CCN(CCc2ccc(Cl)c(Cl)c2)CC1, the AC50 (Cytochrome P450 1A2) was 25.1 µM (inconclusive).
In the case of Cc1cccc(-n2ccnc2SCC(=O)Nc2nccs2)c1, the EC50 [4] is reported as 23.4 µM (active), the EC50 (H4) is reported as > 120 µM (not active) and the EC50 [5] is reported as 6.34 µM (active).
In the case of CCOc1ccc(-c2nc(S(=O)(=O)c3ccccc3)c(NCc3cccnc3)o2)cc1, the EC50 [1] is reported as > 120 µM (not active), the EC50 [2] is reported as > 120 µM (not active) and the EC50 [3] is reported as > 120 µM (not active).
In the case of Cc1cc(NC(=O)C2C3C(=O)N(Cc4ccc(Cl)cc4)C(C(=O)NC(C)(C)C)C34C=CC2(C)O4)no1 (stereo not drawn), the AC50 (Cytochrome P450 3A4) is reported as 25.1 µM (inconclusive) and the EC50 [6] is reported as > 195 µM (not active).
For Cc1ccc(S(=O)(=O)N(C)C[C@H]2OCCCC[C@@H](C)Oc3ccc(NS(=O)(=O)c4ccc(F)cc4)cc3C(=O)N([C@@H](C)CO)C[C@H]2C)cc1, the AC50 (Paired box protein Pax-8) was 8.12 µM (active).
For Cc1ccccc1-c1cc(C(=O)Nc2nc3c(s2)CCCC3)c2ccccc2n1, the AC50 (Cytochrome P450 1A2) was 3.55 µM (inconclusive).
For COc1ccc(NS(=O)(=O)c2cccc(N3CC(=O)C(c4ccccc4)=C3N)c2)cc1, the EC50 [1] was > 120 µM (not active), the EC50 [2] was > 120 µM (not active) and the EC50 [3] was > 120 µM (not active).
With Cc1c(NC(=O)/C(C#N)=C/c2ccc(-c3ccccc3Cl)o2)c(=O)n(-c2ccccc2)n1C the EC50 [1] was > 120 µM (not active), the EC50 [2] was > 120 µM (not active) and the EC50 [3] was 13.4 µM (active).
For CCC(CC)C(=O)Nc1cccc(/C(C)=N\NC(=O)c2ccc(C)s2)c1, the AC50 (Cytochrome P450 2C9) was 0.355 µM (inconclusive) and the AC50 (Cytochrome P450 1A2) was 3.16 µM (inconclusive).
For COC(=O)[C@@]1(Cc2ccc(OC)cc2)[C@H]2c3cc(C(=O)N(C)C)n(CCN4CNCC4=O)c3C[C@H]2CN1C(=O)c1ccccc1, the AC50 (Cytochrome P450 1A2) was 20 µM (inconclusive) and the AC50 (Cytochrome P450 2C19) was 15.8 µM (inconclusive).
For O=c1c(-c2ccc(Cl)cc2)nc2cnc(Nc3ccccc3)nc2n1C[C@H]1CCCO1, the AC50 (Cytochrome P450 1A2) was 12.6 µM (inconclusive).
For Oc1ccc(CNCc2ccccc2)c2cccnc12, the AC50 (Cytochrome P450 1A2) was 5.01 µM (inconclusive).
